Source: patent US20250388583A1, “COMPOUNDS AND METHOD FOR PKMYT1 INHIBITION” (Engine Biosciences Pte. Ltd., priority 2022, published 2025)

Each compound was assayed against PKMYT1 (Homo sapiens (Human), UniProt Q99640) (assay: In vitro assay: kinase binding to immobilized ligand, captured kinase measured by qPCR).
Chain of PKMYT1 (Q99640 whole entry): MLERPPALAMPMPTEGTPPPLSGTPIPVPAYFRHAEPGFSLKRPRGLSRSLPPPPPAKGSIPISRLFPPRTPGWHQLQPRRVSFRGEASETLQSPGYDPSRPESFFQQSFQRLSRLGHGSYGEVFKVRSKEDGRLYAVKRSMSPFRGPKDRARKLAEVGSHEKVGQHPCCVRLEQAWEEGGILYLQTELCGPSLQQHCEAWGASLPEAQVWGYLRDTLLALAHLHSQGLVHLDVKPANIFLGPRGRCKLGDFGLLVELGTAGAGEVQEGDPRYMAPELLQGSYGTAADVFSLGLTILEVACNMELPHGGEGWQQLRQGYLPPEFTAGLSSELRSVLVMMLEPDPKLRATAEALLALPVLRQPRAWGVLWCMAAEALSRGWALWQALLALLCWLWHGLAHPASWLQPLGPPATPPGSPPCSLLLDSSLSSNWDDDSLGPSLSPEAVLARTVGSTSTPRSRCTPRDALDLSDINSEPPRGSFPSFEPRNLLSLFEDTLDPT
From the text: Screening “hits” were identified by measuring the amount of kinase captured in test versus control samples by using a quantitative, precise and ultra-sensitive qPCR method that detect the associated DNA label.

Row | SMILES | IC50 [nM]
1 | Cc1ccc(O)c(C)c1-n1c(N)c(C(N)=O)c2cnc(NCCO)nc21 (atropisomer, axis not shown) [Compound 588, 6-amino-7-(3-hydroxy-2,6-dimethylphenyl)-2-((2-hydroxyethyl)amino)-7H-pyrrolo[2,3-d]pyrimidine-5-carboxamide] | < 50
2 | Cc1ccc(O)c(C)c1-n1c(N)c(C(N)=O)c2cnc(N[C@@H]3CCC[C@@H]3O)nc21 (atropisomer, axis not shown) [Compound 591] | 50 to 100
3 | Cc1ccc(O)c(C)c1-n1c(N)c(C(N)=O)c2cncc(F)c21 (atropisomer, axis not shown) [Compound 624, 2-amino-7-fluoro-1-(3-hydroxy-2,6-dimethyl-phenyl)pyrrolo[3,2-c]pyridine-3-carboxamide] | < 50
4 | Cc1ccc(O)c(C)c1-n1c(N)c(C(N)=O)c2cncnc21 (single isomer, unassigned) [Compound 571, 6-amino-7-(3-hydroxy-2,6-dimethylphenyl)-7H-pyrrolo[2,3-d]pyrimidine-5-carboxamide] | 100 to 1000
5 | Cc1ccc(O)c(C)c1-n1c(N)c(C(N)=O)c2cnc(NCCO)nc21 (single isomer, unassigned) [Compound 585, 6-amino-7-(3-hydroxy-2,6-dimethylphenyl)-2-((2-hydroxyethyl)amino)-7H-pyrrolo[2,3-d]pyrimidine-5-carboxamide] | > 1000
6 | Cc1cc2c(c(C)c1-n1c(N)c(C(N)=O)c3cc(Cl)cnc31)OCO2 [Compound 546, 2-amino-5-chloro-1-(4,6-dimethylbenzo[d][1,3]dioxol-5-yl)-1H-pyrrolo[2,3-b]pyridine-3-carboxamide] | > 1000
7 | Cc1ccc(O)c(C)c1-c1c(N)c(C(N)=O)c2nccc(C)n12 [Compound 548, 7-amino-6-(3-hydroxy-2,6-dimethyl-phenyl)-4-methyl-pyrrolo[1,2-a]pyrimidine-8-carboxamide] | 100 to 1000
8 | Cc1ccn2c(-c3c(C)ccc(O)c3C)c(N)c(C(N)=O)c2n1 [Compound 550, 7-amino-6-(3-hydroxy-2,6-dimethyl-phenyl)-2-methyl-pyrrolo[1,2-a]pyrimidine-8-carboxamide] | 100 to 1000
9 | Cc1ccn2c(-c3c(C)ccc(O)c3C)c(N)c(C(N)=O)c2c1 [Compound 552, 2-amino-3-(3-hydroxy-2,6-dimethylphenyl)-7-methylindolizine-1-carboxamide] | 100 to 1000
10 | Cc1cnc2c(c1)c(C(N)=O)c(N)n2-c1c(C)ccc2ocnc12 [Compound 553, 2-amino-5-methyl-1-(5-methylbenzo[d]oxazol-4-yl)-1H-pyrrolo[2,3-b]pyridine-3-carboxamide] | 100 to 1000
11 | Cc1cn2c(C(N)=O)c(N)c(-c3c(C)ccc(O)c3C)c2cn1 [Compound 555, 7-amino-8-(3-hydroxy-2,6-dimethyl-phenyl)-3-methyl-pyrrolo[1,2-a]pyrazine-6-carboxamide] | < 50
12 | Cc1ccc(O)c(C)c1-n1c(N)c(C(N)=O)c2cc3c(nc21)OCCN3C [Compound 568, 7-amino-6-(3-hydroxy-2,6-dimethylphenyl)-1-methyl-1,2,3,6-tetrahydropyrrolo [3′,2′:5,6]pyrido[2,3-b][1,4]oxazine-8-carboxamide] | < 50
13 | Cc1ccc(O)c(C)c1-n1c(N)c(C(N)=O)c2cnc(N3CC(O)C3)nc21 [Compound 573] | < 50
14 | Cc1ccc(O)c(C)c1-n1c(N)c(C(N)=O)c2cnc(N[C@H]3CCC[C@@H]3O)nc21 [Compound 579, 6-amino-7-(3-hydroxy-2,6-dimethylphenyl)-2-(((1S,2S)-2-hydroxycyclopentyl)amino)-7H-pyrrolo[2,3-d]pyrimidine-5-carboxamide] | < 50
15 | Cc1ccc(O)c(C)c1-n1c(N)c(C(N)=O)c2cnc(N[C@@H]3CCC[C@H]3O)nc21 [Compound 580, 6-amino-7-(3-hydroxy-2,6-dimethylphenyl)-2-(((1R,2R)-2-hydroxycyclopentyl)amino)-7H-pyrrolo[2,3-d]pyrimidine-5-carboxamide] | < 50
